Experimental data from article PMC9924089, “In Silico Discovery of Small Molecule Modulators Targeting the Achilles’ Heel of SARS-CoV-2 Spike Protein” (ACS Central Science, 2023).
pKd: −log10 of the molar value.

target: prototypic SARS-CoV-2 spike protein (Severe acute respiratory syndrome coronavirus 2, UniProt P0DTC2, K986P/R682S/R683G/R685G/V987P); experiment: biochemical; type: binding

Row | SMILES | Response at 50 μM (%) | pKd
1 | CC(=O)n1ccc2ccc(C(=O)CSc3nnc(-c4cccnc4)n3C)cc21 [K822-0272] | 13.8 | –
2 | COc1ccc(-c2noc(CSc3nnc(-c4ccccc4)n3C)n2)cc1 [SPC-5] | 46.1% | –
3 | CCCOC(=O)c1ccc(OCC(=O)c2ccc(O)cc2O)cc1 [F3139-1680] | 13.9 | –
4 | COc1cccc(/C=C2/N=C(c3ccc(NC(C)=O)cc3)OC2=O)c1 [2082-0203] | 17.9 | –
5 | Cn1c(CSc2nc3ccccc3s2)nnc1SCC(=O)NCCO [C592-3799] | 25.5% | –
6 | COCCNC(=O)N1CC(c2nc(-c3cccc(Cl)c3)no2)C1 [F6064-2993] | 9.8 | –
7 | Cc1nc(CSCCC(=O)N2CCc3ccc([N+](=O)[O-])cc32)cs1 [SPC-2] | 40.2% | –
8 | CCCCCC(=O)Oc1ccc(/N=N/c2ccc(C#N)cc2)cc1 [0054-0201] | 23.5% | –
9 | O=C(CSc1ccncc1)OCc1cc(-c2ccccc2F)on1 [F2496-3101] | 14 | –
10 | CCCCCCCCOc1ccc(OC(=O)c2ccco2)cc1 [0606-5952] | 24.2% | –
11 | COc1cccc(-c2noc(CCC(=O)Nc3cccnc3)n2)c1 [SPC-6] | 35.9% | –
12 | COc1ccc(-n2nnc3c(SCC(=O)OCc4ccccc4)ncnc32)cc1 [F0682-1220] | 9 | –
13 | O=C(CCn1ccc(=O)[nH]c1=O)N1CC(c2nc(-c3cccc(Cl)c3)no2)C1 [F6064-2602] | 22.3% | –
14 | COc1ccccc1-c1cc2c(=O)n(Cc3nc(-c4ccccn4)no3)ccn2n1 [F3382-3571] | 8.9 | –
15 | O=C(COC(=O)c1ccc(Cl)cc1Cl)c1ccc(OC(=O)c2ccco2)cc1 [AK-918/41968204] | 5.4 | –
16 | COc1ccc(/C=C/c2nn3c(Cc4ccccc4F)nnc3s2)cc1 [AP-501/43286897] | 17.8 | –
17 | Cc1ccc(-c2nc(CSc3nnc(-c4ccco4)o3)no2)cc1 [T6363271] | 2.9 | –
18 | Cn1c(SCc2nc(-c3ccccc3)no2)nnc1-c1ccco1 [STL416744] | 30.3% | –
19 | O=c1/c(=C/c2ccc(-c3cccc([N+](=O)[O-])c3)o2)sc2nc(-c3cccs3)nn12 [5629-0125] | 16 | –
20 | COc1ccc(-c2cc(COC(=O)CC3CCCCC3)no2)cc1 [F2496-0660] | 10.1 | –
21 | N#Cc1ccc(/N=C/c2cc([N+](=O)[O-])ccc2Cl)cc1 [AE-641/08724023] | 19 | –
22 | CCCCOC(=O)c1ccc(OC(=O)c2cccc3ccccc23)cc1 [AN-652/43024838] | 5.6 | –
23 | O=C(OCc1cc(-c2ccc(F)cc2F)on1)c1ccc2[nH]cnc2c1 [F2496-3037] | 3.6 | –
24 | Cc1nc(C)c(-c2nnc(SCc3nc(-c4cccs4)oc3C)o2)s1 [T6037875] | 18.3 | –
25 | CCCCCCCC/C=C\CCCCCCCC(=O)O [OA, oleic acid, reference compound] | – | 4.55
26 | O=C(COc1ccc(-c2cnc3ccccc3n2)cc1)c1cccs1 [6420-3607] | 11.9 | –
27 | c1csc(-c2noc(CSc3nnc(NC4CC4)s3)n2)c1 [T6141058] | 14.3 | –
28 | c1ccc(-c2nnc(SCCCSc3nnc(-c4ccccc4)o3)o2)cc1 [T6013936] | 17.1 | –

Row | SMILES | Response at 50 μM (%) | pKd
29 | COC(=O)c1ccc2c(c1)C(=O)/C(=C/c1ccc(-c3cccc(C(F)(F)F)c3)o1)O2 [C711-0480] | 23.4% | –
30 | CCCCCCCOc1ccc(C2=N/C(=C/c3ccco3)C(=O)O2)cc1 [0782-7025] | 12.8 | –
31 | O=C(OCc1cc(-c2cc3ccccc3o2)on1)c1ccc2[nH]cnc2c1 [F2496-3295] | 16.2 | –
32 | O=C(Cc1noc2ccccc12)N1CC(c2nc(-c3ccc[nH]c3=O)no2)C1 [F6064-7687] | 9.3 | –
33 | COc1cccc(-c2ncc(CNC(=O)CC3NC(=O)NC3=O)s2)c1 (stereo not drawn) [compound 42995570] | 16 | –
34 | CCOc1ccc(C(=O)COC(=O)c2ccc(NC(C)=O)cc2)cc1 [AK-918/42180074] | 5.7 | –
35 | O=C(Cc1cccnc1)N1CC(n2cc(COc3ccccc3)nn2)C1 [F6514-4048] | 10.5 | –
36 | CN(CCc1cnn(C)c1)C(=O)c1ccc(-c2ccccc2Cl)o1 [SPC-4] | 30.4% | –
37 | COc1cccc(C(=O)COC(=O)c2ccc(O)cc2O)c1 [SPC-1] | 46% | –
38 | CN(CCCO)C(=O)c1coc(COc2cccc(F)c2F)n1 [compound 11547730] | 14.9 | –
39 | CSc1nc(N)n2nc(C(C)(C)C)cc2n1 [compound 6536] | 23.3% | –
40 | Cn1c(SCc2nc(-c3ccccc3Cl)no2)nnc1-c1ccccc1F [SPC-3] | 51.8% | –
41 | O=C(Oc1ccc(OC(=O)c2c(Cl)nsc2Cl)cc1)c1c(Cl)nsc1Cl [8002-0592] | 14.4 | –
42 | COc1ccc(-c2nnc(SCc3nc(-c4ccco4)no3)o2)cc1 [T6080959] | 21.2% | –
43 | CCCCOC(=O)c1ccc(NC(=O)c2cc(=O)c(OC)co2)cc1 [F5449-0108] | 15.8 | –
44 | CC(=O)Nc1ccc(Oc2ccc3c(c2)C(=O)N(c2cccc(C)c2)C3=O)cc1 [0584-0466] | 21.5% | –
45 | CCCCC/C=C\C/C=C\CCCCCCCC(=O)O [LA, linoleic acid, reference compound] | – | 4.47
46 | Cc1cc(C(=O)CSc2nnc(-c3nnc(-c4ccccc4)o3)o2)c(C)n1C [T6388553] | 18.3 | –
47 | O=C(CCn1ccc(=O)[nH]c1=O)OCc1cc(-c2ccco2)on1 [F2496-3133] | 21.1% | –
48 | CCN(CC)c1ccc(/C=N/c2ccc(S(N)(=O)=O)cc2)cc1 [2166-0281] | 21 | –
49 | CCC(=O)Nc1ccc(C(=O)OCC(=O)c2ccc(Cl)c(Cl)c2)cc1 [AJ-292/41945407] | 7.7 | –
50 | Cc1nc(C(F)(F)F)ccc1-c1nnc(SCc2ccc(OC(F)(F)F)cc2)o1 [compound 9502] | 26.3% | –
51 | NCc1cncc(-c2ccccc2)c1 [F1905-6556] | 14.1 | –
52 | O=C(CCn1ccc(=O)[nH]c1=O)NCc1cc(-c2ccccc2F)on1 [F2493-3278] | 18.5 | –
53 | CC(=O)Nc1ccc(-c2cn3cc(Sc4ccccc4)ccc3n2)cc1 [AQ-776/42801545] | 19.5 | –
54 | Cc1cccc(-c2noc(CCc3nc(C4CCOC4)no3)n2)c1 (stereo not drawn) [compound 18297954] | 16.5 | –
55 | O=S(=O)(NCC#CCOc1cccc(C(F)(F)F)c1)c1cccs1 [F6412-1980] | 27.1% | –

target: SARS-CoV-2 spike protein (Severe acute respiratory syndrome coronavirus 2, UniProt P0DTC2, K986P/R682S/R683G/R685G/V987P); experiment: not given

Row | SMILES | particles in the closed state (three RBD down) | particles in the open state with one RBD up [%]
56 | O=C(O)CCCCCC(=O)N1CCc2ccc([N+](=O)[O-])cc21 [SPC-14] | about 48% | 52
